According to patent US20240197681A1, “METHODS AND COMPOSITIONS RELATING TO PS[…] SEROTONIN RECEPTOR MODULATORS” (Terran Biosciences Inc., priority 2021, published 2024):
“Also recorded” adds a separate entry of the source. Read-outs that look alike come from different tables or passages of the source.

Key:
C57Bl/6J mice [1] = assay: Sucrose preference test (SPT) after chronic multimodal stress (CMMS); type: in vivo; settings: stress-susceptible male mice after 10-14 days CMMS; single drug (psilocybin 1 mg/kg i.p. or ketanserin 2 mg/kg i.p.) plus vehicle injection; 24-48 hours after injection
C57Bl/6J mice [2] = assay: Female urine sniff test (FUST) after chronic multimodal stress (CMMS); type: in vivo; settings: stress-susceptible male mice after 10-14 days CMMS; single drug (psilocybin 1 mg/kg i.p. or ketanserin 2 mg/kg i.p.) plus vehicle injection; 24-48 hours after injection
5-HT2A receptor = biological target: T1, 5-HT2A receptor (Mus musculus, UniProt P35363); assay: Head twitch response (HTR); type: in vivo, mice; settings: ketanserin 2 mg/kg 60 minutes prior to psilocybin 1 mg/kg, 15 minutes following injection
T1 construct: from tissue; host or cells: live mice (whole animal, brain receptors)
T1 sequence (P35363 whole entry): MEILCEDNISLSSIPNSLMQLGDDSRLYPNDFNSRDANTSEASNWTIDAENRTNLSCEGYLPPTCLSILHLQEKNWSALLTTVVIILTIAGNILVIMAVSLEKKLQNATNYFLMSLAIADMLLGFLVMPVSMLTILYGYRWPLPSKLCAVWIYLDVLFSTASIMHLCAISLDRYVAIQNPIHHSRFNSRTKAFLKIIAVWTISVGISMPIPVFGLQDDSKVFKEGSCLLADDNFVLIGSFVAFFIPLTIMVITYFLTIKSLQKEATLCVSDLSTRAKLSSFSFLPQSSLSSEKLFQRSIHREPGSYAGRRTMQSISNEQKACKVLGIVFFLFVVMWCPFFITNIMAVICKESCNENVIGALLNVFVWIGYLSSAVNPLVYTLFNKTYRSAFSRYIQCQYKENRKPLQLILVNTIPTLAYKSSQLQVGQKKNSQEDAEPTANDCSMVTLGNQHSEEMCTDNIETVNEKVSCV

TA-CA1 synapses = assay: In vitro electrophysiology: AMPA:NMDA ratios of TA-CA1 fEPSPs in hippocampal slices from treated mice; type: in vivo; settings: ketanserin 2 mg/kg 60 minutes prior to psilocybin 1 mg/kg; CMMS mice
Description: Standard methods were used to prepare […] hippocampal slices. Briefly, mice were euthanized via exposure to isoflurane followed by decapitation. Brains were excised and the hippocampus was quickly dissected from the brain and sectioned on a Leica VT1200 series vibratome in ice-cold artificial cerebrospinal fluid (ACSF) bubbled with 95% O2/5% CO2. The ACSF contained: 124 mM NaCl, 3 mM KCl, 1.25 mM NaH2PO4, 1.5 mM MgSO4, 2.5 mM CaCl2, 26 mM NaHCO3, and 10 mM glucose. Slices were allowed to recover for a minimum of 60 minutes at room temperature in ACSF in a humidified interface chamber before recording.
Use of extracellular recording, rather than whole-cell recording, was chosen for quantification of AMPA:NMDA ratios because of the complications of stress-induced changes in dendritic structure and their electrotonic influence on recordings of distal TA-CAI synapses. For quantification of AMPA:NMDA ratios, ACSF was prepared as stated, but without MgSO4, to leave NMDA channels unblocked. […] Five fEPSPs were again collected at the same stimulation intensities recorded prior to DNQX. […]
AMPA:NMDA ratios of the TA-CAI fEPSPs were quantified as described previously (A. J. Kallarackal et al., 2013 J. Neuroscience. 33, 15669-15764) in order to provide a measure of synaptic strength across slices from different mice. […]

Healthy Volunteers [3] = assay: Resting-state fMRI: global brain connectivity (GBC) and functional connectivity (FC); type: in vivo, humans; settings: ketanserin 60 minutes before LSD; for LSD induced neural changes at 300 minutes in the presence of ketanserin: absence of psychotomimetic effects
Text: The used dataset was acquired in the course of a registered clinical trial (ClinicalTrials.gov Identifier: NCT02451072) entitled: The Role of 5-HT2A Receptor in the Perception of Self and Personal Meaning in Healthy Volunteers. Participants, study design, neuroimaging data acquisition, preprocessing and global brain connectivity calculation are detailed in Preller et al. (eLife. 2018 Oct. 25; 7:e35082. Changes in global and thalamic brain connectivity in LSD-induced altered states of consciousness are attributable to the 5-HT2A receptor, PMID: 30355445). The relevant methodological sections pertinent to the current analysis are summarized below.
24 subjects were included in the dataset (n=19 males; mean age=25.0 years, standard deviation=3.6 years, range=20-34 years). All included subjects were healthy, as confirmed by medical history, physical examination, blood analysis, electrocardiogra Mini-International Neuropsychiatric Interview (MINI-SCID) [Sheehan et al., 1998], the DSM-IV self-rating questionnaire for Axis-II personality disorders (SCIS-II) [Fydrich et al., 1997], and the Hopkins Symptom Checklist (SCL-90R) [Franke, 1995]. Subjects were required to abstain from prescription or illicit drugs, alcohol, smoking and caffeine.
The study was designed as a fully double-blind, randomized, within-subject cross-over study. During a session, subjects were pretreated with either a placebo or the 5-HT2A receptor antagonist Ketanserin 60 minutes before being treated with either a placebo or LSD. Thus, each subject participated in 3 sessions in which they underwent each of the following pretreatment · treatment conditions in a randomized, balanced order: • a) Placebo+placebo • b) Placebo+LSD • c) Ketanserin+LSD Two resting-state scans were performed, one 75 and the other 300 minutes after treatment. To assess participants' experience, a retrospective self-report questionnaire (5D-ASC, [Dittrich, 1998]) was administered 720 minutes after treatment, and a shorter version of the 5D-ASC 180, 250 and 360 minutes after treatment. […]

Healthy Volunteers [4] = settings: cited from earlier work; for subjective (psychotomimetic) LSD effects versus placebo at 360 minutes: 5D-ASC short version
C57Bl/6J mice [5] = assay: Locomotion in open field arena; settings: ketanserin 2 mg/kg 60 minutes prior to psilocybin 5 mg/kg
[6] = test system: hippocampal area CA1 in anesthetized mice; assay: In vivo electrophysiology: local field potentials in hippocampal CA1; settings: for effect of ketanserin pretreatment on psilocybin-induced reduction in low frequency (delta) LFP power: ketanserin 2 mg/kg i.p. 60 minutes before psilocybin 10 mg/kg i.p., 15-25 minutes following psilocybin injection

SMILES	sucrose preference (SP) compared to values after CMMS (C57Bl/6J mice [1])	female urine preference compared to values after CMMS (C57Bl/6J mice [2])	effect of ketanserin pretreatment on psilocybin-induced head-twitching (5-HT2A receptor activation) (5-HT2A receptor)	effect of ketanserin pretreatment on psilocybin-induced head-twitching (5-HT2A receptor activation) (5-HT2A receptor; listed as Ketanserin)	effect of ketanserin pretreatment on the ability of psilocybin to restore AMPA:NMDA ratios (TA-CA1 synapses)	effect of ketanserin pretreatment on LSD-induced neural changes at 75 minutes (Healthy Volunteers [3])	LSD induced neural changes at 300 minutes in the presence of ketanserin (Healthy Volunteers [3])	effect of ketanserin pretreatment on psychotomimetic (behavioral) effects of LSD (Healthy Volunteers [4]; ketanserin 60 minutes before LSD, all timepoints)	effect of ketanserin pretreatment on locomotion (C57Bl/6J mice [5])	effect of ketanserin pretreatment on psilocybin-induced reduction in low frequency (delta) LFP power [6]	effect of ketanserin pretreatment on psilocybin-induced reduction in low frequency (delta) LFP power ([6]; listed as Ketanserin)	time of peak effect on low frequency LFP activity following psilocybin injection ([6]; psilocybin 10 mg/kg)	duration of decrease of delta band power ([6]; psilocybin 10 mg/kg, i.p.)	time to decrease of delta band power ([6]; psilocybin 10 mg/kg, i.p.)	subjective (psychotomimetic) LSD effects versus placebo at 360 minutes (Healthy Volunteers [4]; FIG. 20 reprinted from Preller 2018)	subjective (psychotomimetic) LSD effects versus placebo at 360 minutes (Healthy Volunteers [4]; FIG. 20 reprinted from Preller 2018, listed as Pla+LSD)	self-reported altered states of consciousness (5D-ASC short version) (Healthy Volunteers [4]; 180, 250 and 360 minutes after second drug administration, FIG. 20 reprinted from Preller 2018)
O=C(c1ccc(F)cc1)C1CCN(CCn2c(=O)[nH]c3ccccc3c2=O)CC1 [ketanserin]	nor ketanserin alone (p=0.87; n=6) had a significant effect on SP; also recorded: no significant effect	nor ketanserin alone (p=0.072) had a significant effect on female urine preference; also recorded: no significant effect	prevents head-twitching; also recorded: sufficiently blocked 5-HT2A receptors; also recorded: sufficiently attenuated the activation of 5-HT2ARs	block 5-HT2AR-dependent head twitching	did not impair	many of the immediate neural changes induced by LSD at 75 minutes	did not block the neural changes induced by LSD	blocked all of the psychotomimetic effects of LSD; also recorded: fully blocked the behavioral effects of LSD	enhances hypolocomotive effects of psilocybin; also recorded: induced hypo-locomotion	inhibited; also recorded: significantly attenuated	greatly attenuated; also recorded: block						
CN(C)CCc1c[nH]c2cccc(OP(=O)(O)O)c12 [psilocybin]												15 to 25 min	> 60 min	≤ 15 min			
CCN(CC)C(=O)[C@@H]1C=C2c3cccc4[nH]cc(c34)C[C@H]2N(C)C1 [LSD, lysergic acid diethylamide]							reached near full effect within 300 minutes								still intense and high above placebo	still significantly elevated from placebo	substantial self-reported altered states of consciousness
